Experiments:
HLA-E = HLA-E surface stabilization assay with RMA-S/HLA-E cells; assay type: cell-based, human; settings: peptide 3-300 µM (Fig. 3: 30 µM) in OptiMEM, 16 h, 37 °C, anti-HLA-E 3D12, flow cytometry, n = 4 replicate experiments
NKG2A-/NKG2C+ NK cells = test: NK cell activation assay with peptide-pulsed K562/HLA-E cells, NKG2A-/NKG2C+ NK cells; assay type: cell-based, human; settings: K562/HLA-E target cells, 300 µM peptide ([…] µM BFAR263-271), E:T 2:1, 6 h; degranulation (CD107a), IFN-γ, TNF, CCL3; flow cytometry
CD94/NKG2C = test: Steady-state SPR of peptide-HLA-E single chain trimers with CD94/NKG2C; assay type: binding, human; settings: from Figure 5C KD values, stated in author rebuttal
Experimental: Specifically, we measured CD94/NKG2A and CD94/NKG2C affinity for HLA-E complexed with three sets of peptides. […] Third, we included […] peptide as a positive control.
Steady-state surface plasmon resonance experiments were performed with a Biacore T200 instrument. CD94/NKG2x in HBS-EP+ buffer was injected as analyte in a concentration range of 0.1 μM to 102.4 μM and flow rate of 10 μL/min at 25 °C. Data was fit with Prism 9.4 (GraphPad Software Inc; San Diego CA) to a “one site, specific binding” model. Sensorgrams are included in Supplemental Fig. 13.
For investigating WN peptides, biotinylated pMHC was immobilized at approximately 400 Response Units (RU) on a Series S SA sensor chip (Cytiva). […] CD94/NKG2A was injected followed by CD94/NKG2C.
For investigating human-derived peptides, Series S CM5 chips (Cytiva) were coupled to neutravidin and utilized. Biotinylated pMHC was immobilized at approximately 400 RU. On one chip, […] CD94/NKG2A was injected followed by CD94/NKG2C. On a second chip, PISD55-63 HLA-E SCT, AKAP6_388-396 HLA-E SCT, GTF3C5_293-301 HLA-E SCT, and reference HLA-DR401 were immobilized. CD94/NKG2C was injected followed by CD94/NKG2A. Rmax, fit values were calculated by Biacore software. Rmax, theoretical values were calculated using the analyte/ligand mass ratio (0.66) multiplied by the amount of ligand coupled to the chip.

Sequence | stabilization of HLA-E surface expression (HLA-E) | activating effects on NKG2C+ cells (NKG2A-/NKG2C+ NK cells) | weaker affinity of CD94/NKG2C compared to CD94/NKG2A (CD94/NKG2C) | weaker affinity of CD94/NKG2C compared to CD94/NKG2A (CD94/NKG2C; listed as VL9)
VNPGRSLFL [BFAR263-271, human peptide from Bifunctional apoptosis regulator] | weak but detectable stabilization | clear activating effects |  | 
VMAPRTLFL [positive control] |  |  | ~ 3 fold | ~ 2.7 fold
